Experimental data from patent US20030114388A1, “Auxiliary agents for ophthalmic operation” (priority 2000, published 2003).

Tested on: intraoperative bleeding in a patient suffering from diabetic retinopathy with increased intrinsic coagulation tendency
Assay: Systemic drip infusion of argatroban during ophthalmic operation in a patient with diabetic retinopathy (Example 1)
Format: in vivo
Settings: one patient
Procedure: The present invention will be more specifically explained by referring to an example. However, as for as within the gist of the present invention, the present invention is not limited to the following example. As argatroban in the following example, a drug commercially available as the tradename “Slonnon” was used.
The patient was a youth suffering from diabetic retinopathy with increased intrinsic coagulation tendency. […] Argatroban 10 mg as one ample was added to a drip infusion (specify ingredients, and a tradename and name of a manufacturing company if commercially available) and systemically administered to the patient from the beginning of the operation. The operation was completed for 2 hours.
The above patient was a youth suffering from diabetic retinopathy with increased intrinsic coagulation tendency, and if treated under an ordinary operation, intraoperative bleedings would have expected to be easy clotting and caused operative difficulties.

[1] = argatroban 10 mg drip infusion during operation

SMILES: CC1CNc2c(cccc2S(=O)(=O)NC(CCCNC(=N)N)C(=O)N2CCC(C)CC2C(=O)O)C1 (mixture of isomers) [argatroban, (2R,4R)-4-methyl-1-[N^2((RS)-3-methyl-1,2,3,4-tetrahydro-8-quinolinesulfonyl)-L-arginyl]-2-piperidinecarboxylic acid monohydrate]
- abnormal bleeding tendency [1]: No abnormal bleeding tendency was not observed
- ease of treatment of intraoperative bleeding [1]: treatment of intraoperative bleeding became easier
- removal of intraoperative bleedings (argatroban 10 mg drip infusion, passive suction using a back flash needle): successfully removed by passive suction using a back flash needle
- preretinal clotting mass formation from intraoperative bleedings (argatroban 10 mg in drip infusion, systemic, from beginning of operation, 2 hour operation, treatment of fibrous vascular proliferating membrane): all of the bleedings did not give preretinal clotting mass
- intraoperative iatrogenic tear (during treatment of fibrous vascular proliferating membrane, argatroban 10 mg drip infusion): no intraoperative iatrogenic tear was caused
